This is an account of results in patent publication US20070172933A1, “Thermally stable amidases” (priority 2003, published 2007).

B1: amidase: thermally stable amidase purified from Pseudonocardia thermophila (DSMZ 43832); SEQ ID No. 1, 2, 3 (protein, listed as Pseudonocardia thermophila)
chain 1: IHMPDPDAV
chain 2: DGLPVGLMIVGKHF
chain 3: MIHMPDPDAVARMAAEGRFGIPVVVICRTYHDLGHRPARLVEQGRRAVRGGGPHPAAALVDPPRRRGRQARRVGGADLDHRNLGGAARRPHGRGQDNVAVAGVPMMNGSRTLEGFVPAEDATVVSRLLAAGATIAGKSVCEDLCFSGGSHTSKPGTVHNPWDMSRSAGGSSSGSGALVAAGEVDMAIGGDQGGSIRIPSAYCGTVGHKPTHGLVPYTGGFPIEQSIDHLGPITRTVADAALMLSVIAGRDGLDPRQPDVVEVQDYVGALAESVSGLRIGVLQEGFGHPNSEPEVDDTVRAAVGTLREAGFTVEDVSVPWHLHATAIWDVLATEGGLWQMVEGNAYGMHWKGHYDPSLIAYYGRKWREDPAQFSETVKLVALAGRYALTTQYGRHYAMARNLAPKLVAAYDAALSNYDVLVMPTLPMRATVLPGPDAPVEEILARGLEMLANTAPFDVTGHPACSVPAGLADGLPVGLMIVGKHFDDATVLKVANAFEQAVGGFPTPAAZ

Tested on in the first data set: not listed separately
Kind of data set: Hydrolysis assay, specific activity of the purified amidase. Type of data set: biochemical, Pseudonocardia thermophila. Particulars: benzamide as substrate, after purification. On the procedure: To carry out the hydrolysis assay, where not mentioned otherwise, use was made of a 5 mM benzamide solution in 500 μl of a 60 mM K-Na phosphate buffer, pH 7.2. The enzymatic reaction proceeded for one hour at 70° C. with addition of 5 μg of the enzyme. The reaction was stopped by cooling the reaction solution on ice. The concentration of the products obtained enzymatically (benzoic acid and ammonia) was determined by means of HPLC and spectrometrically, using the ammonia kit Spectroquant 114752 (Merck, Germany). One unit (U) of amidase activity is defined as the amount of enzyme which catalyzes the formation of 1 μmol of benzoic acid per minute.
Regarding B1, the Specific activity is reported as 19.5 U/mg of protein.

The subject of the next data set is amidase. Kind of data set: Substrate specificity of the isolated amidase (hydrolysis assay). Type of data set: biochemical, Pseudonocardia thermophila.
Conditions: not given
As to the method:
(§1) To carry out the hydrolysis assay, where not mentioned otherwise, use was made of a 5 mM benzamide solution in 500 μl of a 60 mM K-Na phosphate buffer, pH 7.2. The enzymatic reaction proceeded for one hour at 70° C. with addition of 5 μg of the enzyme. The reaction was stopped by cooling the reaction solution on ice. […] One unit (U) of amidase activity is defined as the amount of enzyme which catalyzes the formation of 1 μmol of benzoic acid per minute.
The substrate specificity of the amidase was tested at three different temperatures taking into account the substrate used in each case. For hydrolysis of amino acid amides, the reaction mixture was reacted for 3 h at 30° C., in the case of the aliphatic and cyclic amides 1 h at 50° C., and for aromatic amide substrates 1 h at 70° C. The enzymatic activity was then determined as described above. The control used was each batch without enzyme.
Consider m-tolylamide, for which the Specific activity was found to be 12.7 µmol/min/mg.

Staying with this data set, now noted: Aliphatic amides; 1 h at 50° C.
With `NC(=O)CCCCC(N)=O` [adipamide], the Specific activity was 12.0 µmol/min/mg.

Turning to `NC(=O)CC(N)=O` [malonamide], the Specific activity turned out to be 7.4 µmol/min/mg.

With `CC(C)(C)C(N)=O` [pivalamide], the Specific activity worked out at 14.9 µmol/min/mg.

The molecule `CC(N)=O` [acetamide] had a Specific activity of 15.7 µmol/min/mg.

`NC(=O)CCC(N)=O` [succinamide] came in with a Specific activity of 4.0 µmol/min/mg.

Regarding `C=C(C)C(N)=O` [methacrylamide], the Specific activity is 23.5 µmol/min/mg.

`CCC(N)=O` [propionamide] had a Specific activity of 25.4 µmol/min/mg.

Take `NC=O` [formamide]: the Specific activity stood at 9.2 µmol/min/mg.

With `NC(N)=O` [urea], the Specific activity is 17.5 µmol/min/mg.

As for `CC(C)C(N)=O` [isobutyramide], the Specific activity worked out at 13.5 µmol/min/mg.

With `CCCCCC(N)=O` [hexanoamide], the Specific activity stood at 9.3 µmol/min/mg.

For `CC(O)C(N)=O` (racemic) [DL-lactamide], the Specific activity is 18.9 µmol/min/mg.

Still in this data set, the particulars now being: Amino acid amides; 3 h at 30° C.
`NC(=O)[C@@H](N)Cc1c[nH]c2ccccc12` [L-tryptophanamide] came in with a Specific activity of 10.3 µmol/min/mg.

As to `CC(C)[C@H](N)C(N)=O` [L-valinamide], the Specific activity worked out at 13.0 µmol/min/mg.

The molecule `C[C@H](N)C(N)=O` [L-alaninamide] gave a Specific activity of 10.5 µmol/min/mg.

Regarding `CSCC[C@H](N)C(N)=O` [L-methioninamide], the Specific activity was determined as 14.4 µmol/min/mg.

In turn, `CC(C)(C)[C@H](N)C(N)=O` [L-tert-leucinamide] registered a Specific activity of 0.08 µmol/min/mg.

The molecule `CC(C)C[C@H](N)C(N)=O` [L-leucinamide] came in with a Specific activity of 10.8 µmol/min/mg.

`CSCCC(O)C(N)=O` (stereo not drawn) [2-hydroxy-4-(methylthio)butyramide]: the Specific activity stood at 5.7 µmol/min/mg.

`NC(=O)[C@@H]1CCCN1` [L-prolinamide] returned a Specific activity of 13.0 µmol/min/mg.

The data set is the same for the next values; noted with them: Aromatic amides; 1 h at 70° C.
For the molecule `NC(=O)c1ccccc1` [benzamide], the Specific activity came to 19.4 µmol/min/mg.

As to `CC(C(N)=O)c1ccccc1` (stereo not drawn) [2-phenylpropionamide], the Specific activity was 15.8 µmol/min/mg.

As for `NC(=O)c1ccc(N)cc1` [4-aminobenzamide], the Specific activity was determined as 6.5 µmol/min/mg.

Turning to `NC(=O)Cc1c[nH]c2ccccc12` [3-indolylacetamide], the Specific activity was 7.56 µmol/min/mg.

Molecule `NC(=O)c1ccccc1O` [o-hydroxybenzamide] showed a Specific activity of 7.4 µmol/min/mg.

Take `NC(=O)c1ccccc1N` [2-aminobenzamide]: the Specific activity was 3.4 µmol/min/mg.

Molecule p-tolylamide yielded a Specific activity of 13.1 µmol/min/mg.

The same data set, now with this note: Heterocycles; temperature for this group not stated clearly.
The molecule `NC(=O)c1ccncc1` [isonicotinamide] returned a Specific activity of 7.1 µmol/min/mg.

In turn, `NC(=O)c1cccnc1` [nicotinamide] showed a Specific activity of 11.6 µmol/min/mg.

On to `NC(=O)c1cnccn1` [pyrazinamide], for which the Specific activity amounted to 11.2 µmol/min/mg.

Still in this data set, the particulars now being: Table 4, inventive amidase.
As to B1, the “Substrate specificity (amides)” value is recorded as “Al, Ar, Cy, As”.

The next data set relates to amidase. Kind of data set: Enantioselectivity of the isolated amidase, chiral HPLC. Type of data set: biochemical, Pseudonocardia thermophila. The settings on record: 5 mM racemic substrate, 70° C., after 60 minutes. As to the method:
For this, 10 μg of the purified amidase were incubated with a 5 mM racemic 2-phenylpropionamide solution for 3 h at 70° C., the end volume of the reaction batch being 500 μl. At 30-minute intervals, samples were taken from the reaction batch and analyzed by an HPLC measurement.
The product determination and quantification of the R-and S-stereoisomers of the 2-phenylpropionamide were determined by injecting defined amounts of the corresponding pure substances as standard. The enantiomeric excess (ee) was calculated on the basis of the peak area ratio obtained by the chirar HPLC measurement (ee^p=(S−R)/(S+R); ee^p (%)=(S−R)/(S+R) ×100; where p=product).
For the HPLC measurements, a chiral Chirobiotic T column (Astec, Whippany, USA) was used. The solvent used was ethanol and 20 mM potassium phosphate buffer, pH 7.2, having a volumetric ratio of 20:80. The elution was performed at room temperature using a flow rate of 0.8 ml min^−1. Detection was performed at a wavelength of 210 nm. The amfmonia concentration was studied using the phenol hypochloride method using the ammonia kit Spectroquant 114752 (Merck, Germany), the amount of ammonia released being determined spectrometrically using ammonium chloride as standard.
`CC(C(N)=O)c1ccccc1` (stereo not drawn) [2-phenylpropionamide] returned a conversion of 50%.

Staying with this data set, now noted: 5 mM racemic substrate, 70° C., after 60 minutes, S-enantiomer product.
`CC(C(N)=O)c1ccccc1` (stereo not drawn) [2-phenylpropionamide]: the “enantiomeric excess ee^p” value was “greater than 95%”.

The data set is the same for the next values; noted with them: racemic substrate, 70° C.
With `CC(C(N)=O)c1ccccc1` (stereo not drawn) [2-phenylpropionamide], the “enantioselectivity of the purified amidase for the substrate” value was “highly S-selective”.

Tested on in the next data set: not listed separately
Kind of data set: Determination of the isoelectric point by isoelectric focusing. The settings on record: Novex polyacrylamide gel. Type of data set: physicochemical, Pseudonocardia thermophila. On the procedure: The isoelectric point was determined by means of isoelectric focusing using a Novex polyacrylamide gel (pH .3-10) and using a Novex electrophoresis chamber in accordance with the manufacturer's instructions (Novex, Invitrogen, Netherlands). The isoelectric point of the purified amidase was determined at pH 4.2.
The molecule B1 showed an isoelectric point of 4.2 pH.

The same data set, now with this note: Table 4, inventive amidase.
Regarding B1, the “IEF point pH” value is recorded as 4.2 pH.

For a further data set, the system named is amidase. Put plainly: Effect of metals and inhibitors (reagents and ions) on amidase activity, benzamide hydrolysis. Type of data set: biochemical, Pseudonocardia thermophila.
Conditions: not given
As to the method:
as §1
To study the effect of certain reagents and ions on amidase activity, a solution containing 5 μg of amidase and the reagent or ion was preincubated for 1 h at 22° C. in 50 mM phosphate buffer. A 5 mM solution of benzamide in 50 mM phosphate buffer was then added until the end concentration of the reagent in the reaction batch was 1 mM. The reaction was performed for 1 h at 70° C. The catalytic activity was determined as described above.
Take `O[C@@H](CS)[C@@H](O)CS` [DTT]: the “sensitivity of the amidases to the reagent (in words)” value (shortened to “sensitivity of the amidases”) is reported as “increased”.

For `CCCCCCCCCCCCOS(=O)(=O)[O-].[Na+]` [SDS], the “sensitivity of the amidases” value is given as “insensitive”.

As to Triton X-100, the “sensitivity of the amidases” value is “insensitive”.

As for `O=C(O)CN(CCN(CC(=O)O)CC(=O)O)CC(=O)O` [EDTA], the “sensitivity of the amidases” value is given as “insensitive”.

Still in this data set, the particulars now being: reagent 1 mM; preincubated 1 h at 22° C.; benzamide, 1 h at 70° C.
Regarding `O[C@@H](CS)[C@@H](O)CS` [DTT], the “Amidase activity in %” value came out at 120%.

Take `[Cu+2]` [Cu^2+]: the “Amidase activity in %” value is given as 26%.

`NC(=O)CI` [iodoacetamide]: the “Amidase activity in %” value was found to be 90%.

With `[Mg+2]` [Mg^2+], the “Amidase activity in %” value amounted to 90%.

As for `CCCCCCCCCCCCOS(=O)(=O)[O-].[Na+]` [SDS], the “Amidase activity in %” value was determined as 100%.

With `[Mn+2]` [Mn^2+], the “Amidase activity in %” value amounted to 98%.

Turning to Triton X-100, the “Amidase activity in %” value amounted to 100%.

`[Co+2]` [Co^2+]: the “Amidase activity in %” value is listed as 0%.

For `[Zn+2]` [Zn^2+], the “Amidase activity in %” value is recorded as 93%.

For `[Ba+2]` [Ba^2+], the “Amidase activity in %” value was found to be 87%.

As to `O=C(O)CI` [iodoacetate], the “Amidase activity in %” value is recorded as 22%.

`[Ca+2]` [Ca^2+]: the “Amidase activity in %” value is 85%.

As for `[Ni+2]` [Ni^2+], the “Amidase activity in %” value is recorded as 42%.

Take `O=C(O)CN(CCN(CC(=O)O)CC(=O)O)CC(=O)O` [EDTA]: the “Amidase activity in %” value stood at 100%.

Tested on in the next data set: not given
Experiment: not given
Type of data set: physicochemical, Pseudonocardia thermophila. Particulars: pH 7.2. On the procedure:
In addition, the temperature stability of the enzymes was studied between 50° C. and 80° C. over a relatively long period. […] (middle curve, FIG. 5).
For B1, the “enzymatic activity over time (thermal stability)” value is listed as “decreases rapidly”.
